# Results reported in article PMC7827014, “Synthetic Transition from Thiourea-Based Compounds to Tetrazole Derivatives: Structure and Biological Evaluation of Synthesized New N-(Furan-2-ylmethyl)-1H-tetrazol-5-amine Derivatives” (Molecules, 2021).
# Test system: M. tuberculosis INH resistant (Spec. 210)
# Assay: In vitro antitubercular MIC
# Format: cell-based
# Settings: Mycobacterium tuberculosis, read-out: Minimal inhibitory concentration
row,SMILES,MIC
1,"Fc1ccc(-n2nnnc2NCc2ccco2)cc1 [Compound 1, 1-(4-fluorophenyl)-N-(furan-2-ylmethyl)-1H-tetrazol-5-amine]",256 µg/mL
2,"Cc1ccc(Cl)cc1-n1nnnc1NCc1ccco1 [Compound 2, 1-(5-chloro-2-methylphenyl)-N-(furan-2-ylmethyl)-1H-tetrazol-5-amine]",512 µg/mL
3,"Ic1ccc(-n2nnnc2NCc2ccco2)cc1 [Compound 3, N-(furan-2-ylmethyl)-1-(4-iodophenyl)-1H-tetrazol-5-amine]",512 µg/mL
4,"Clc1cccc(-n2nnnc2NCc2ccco2)c1 [Compound 4, 1-(3-chlorophenyl)-N-(furan-2-ylmethyl)-1H-tetrazol-5-amine]",256 µg/mL
5,"Clc1ccc(-n2nnnc2NCc2ccco2)cc1Cl [Compound 5, 1-(3,4-dichlorophenyl)-N-(furan-2-ylmethyl)-1H-tetrazol-5-amine]",> 512 µg/mL
6,"Fc1ccccc1-n1nnnc1NCc1ccco1 [Compound 6, 1-(2-fluorophenyl)-N-(furan-2-ylmethyl)-1H-tetrazol-5-amine]",256 µg/mL
7,"Brc1cccc(-n2nnnc2NCc2ccco2)c1 [Compound 7, 1-(3-bromophenyl)-N-(furan-2-ylmethyl)-1H-tetrazol-5-amine]",256 µg/mL
8,"Clc1ccc(-n2nnnc2NCc2ccco2)cc1 [Compound 8, 1-(4-chlorophenyl)-N-(furan-2-ylmethyl)-1H-tetrazol-5-amine]",256 µg/mL
9,"Fc1cccc(-n2nnnc2NCc2ccco2)c1 [Compound 9, 1-(3-fluorophenyl)-N-(furan-2-ylmethyl)-1H-tetrazol-5-amine]",256 µg/mL
10,"Brc1ccc(-n2nnnc2NCc2ccco2)cc1 [Compound 10, 1-(4-bromophenyl)-N-(furan-2-ylmethyl)-1H-tetrazol-5-amine]",512 µg/mL
11,"Clc1ccccc1-n1nnnc1NCc1ccco1 [Compound 11, 1-(2-chlorophenyl)-N-(furan-2-ylmethyl)-1H-tetrazol-5-amine]",256 µg/mL
12,"Brc1ccccc1-n1nnnc1NCc1ccco1 [Compound 12, 1-(2-bromophenyl)-N-(furan-2-ylmethyl)-1H-tetrazol-5-amine]",256 µg/mL
13,"NNC(=O)c1ccncc1 [INH, isoniazid, reference compound]",2 µg/mL
